Series [1] deals with Hepatitis C virus. Briefly: Antiviral activity against HCV1b replicon (I389luc-ubi-neo/NS3-3/5.1) infected in Huh5-2 cells assessed as inhibition of viral RNA replication by luciferase reporter gene assay. The format is functional, organism-based, Hepacivirus hominis. As to conditions: genotype 1b, Huh-5-2. A general note: Replicon systems follow genome replication, usually without infectious particles.

Series [2] can be described thus: Cytotoxicity against human Huh5-2 cells assessed as reduction in cell metabolic activity after 72 hrs by MTS assay. Format: ADME, cell-based, Huh-5-2.
Series [3] is described as follows: Selectivity index, ratio of CC50 for human Huh5-2 cells to EC50 for hepatitis C virus genotype 1b I389luc-ubi-neo/NS3-3/5.1 replicon infected in human Huh5-2 cells. As to conditions: read-out: Ratio CC50/EC50. Format: toxicity, cell-based, Huh-5-2.
Series [4] in a line: Binding affinity to zinc by UV-VIS spectroscopic analysis.
Series [5] relates to Hepatitis C virus. As to the kind of experiment: Antiviral activity against HCV 1b replicon (I389luc-ubi-neo/NS3-3/5.1) infected in Huh-9-13 cells assessed as inhibition of viral RNA replication by RT-PCR method. The note with it: genotype 1b. The format is functional, organism-based, Hepacivirus hominis.
Series [6] is described as follows: Cytotoxicity against human Huh-9-13 cells assessed as reduction in cell metabolic activity after 72 hrs by MTS assay. The format is ADME, cell-based. In general terms: Tetrazolium assays rely on reduction of a dye to a coloured formazan, in cell work by metabolically active cells.
A short description of series [7]: Selectivity index, ratio of CC50 for human Huh-9-13 cells to EC50 for hepatitis C virus genotype 1b I389luc-ubi-neo/NS3-3/5.1 replicon infected in human Huh-9-13 cells. Format: toxicity, cell-based. The note with it: read-out: Ratio CC50/EC50.

The results in this text go back to ChEMBL document CHEMBL3763034, “Exploring the importance of zinc binding and steric/hydrophobic factors in novel HCV replication inhibitors” (Bioorg Med Chem Lett, 2016).

Take `CCCCNC(=O)c1cccc2oc(-c3ccccc3O)nc12`: in the series on Hepatitis C virus [1], the EC50 (in general, the concentration needed to bring the measured effect to its halfway point) came to 7.2 µM. For the same compound, in series [2], the CC50 – broadly, the concentration at which the toxic effect on the cells reaches its halfway point – at 72 h was 39 µM. Also, in series [3], the selectivity ratio worked out at 5.4.
In the case of `O=C(O)c1cccc2oc(-c3ccccc3O)nc12`, binding in series [4] was put at a Kd of 0.5 µM. The EC50 in the series on Hepatitis C virus [1] was 4.9 µM. The CC50 at 72 h in series [2] is 25 µM. Besides, in series [3], the selectivity ratio stood at 5.1.
As to `COC(=O)c1cccc2oc(-c3ccc4ccccc4c3O)nc12`, in the series with Hepatitis C virus [1], the EC50 was found to be 52 µM. Also, the CC50 at 72 h in series [2] was 64 µM. In addition, the selectivity ratio in series [3] came to 1.2.
Consider `CNC(=O)c1cccc2[nH]c(-c3ccccc3O)nc12`, for which the EC50 with Hepatitis C virus [1] stood at 16 µM; with Hepatitis C virus [5], 3.1 µM. The figures for the CC50 at 72 h in series [2] and in series [6] were > 187 µM and 47 µM, respectively. Moreover, the selectivity ratio in series [3] was > 12; in series [7], 15.
`O=C(O)c1cccc2c1nc(-c1ccccc1O)n2Cc1ccccc1`: the EC50 with Hepatitis C virus [1] came out at 2.6 µM; in the series with Hepatitis C virus [5], 0.6 µM. Moreover, the CC50 at 72 h was > 145 µM in series [2] and > 100 µM in series [6]. Moreover, the selectivity ratio in series [3] is > 55; in series [7] it was > 167.
Take `CN(C)C(=O)c1cccc2oc(-c3ccccc3O)nc12`: the EC50 with Hepatitis C virus [1] is 109 µM. In addition, the CC50 at 72 h in series [2] was > 177 µM. For the same compound, in series [3], the selectivity ratio is > 1.6.
On to `COC(=O)c1cccc2[nH]c(-c3ccccc3O)nc12`, for which the affinity in series [4], expressed as Kd, was 190 µM. Besides, the EC50 in the series with Hepatitis C virus [1] is 106 µM. The 50% cytotoxic concentration (CC50) at 72 h in series [2] was determined as 132 µM. Moreover, the selectivity ratio in series [3] turned out to be 1.3.
Consider `NC(=O)c1cccc2oc(-c3ccccc3O)nc12`, for which the EC50 in the series on Hepatitis C virus [1] stood at 47 µM. Besides, in series [2], the CC50 at 72 h is > 197 µM. Moreover, the selectivity ratio in series [3] is > 4.2.
In the case of `CNC(=O)c1cccc2c1nc(-c1ccccc1O)n2Cc1ccccc1`, the EC50 in the series with Hepatitis C virus [1] was 8.4 µM; with Hepatitis C virus [5] it was 21 µM. Besides, the CC50 at 72 h in series [2] is 101 µM; in series [6], 38 µM. Besides, the figures for the selectivity ratio in series [3] and in series [7] were 12 and 1.8, respectively.
For the compound `COC(=O)c1cccc2oc(-c3cccc4cccnc34)nc12`, in the series on Hepatitis C virus [1], the EC50 is > 50 µM. Also, the CC50 at 72 h in series [2] was > 50 µM.
`COC(=O)c1cccc2oc(-c3cc4ccccc4cc3O)nc12`: in the series on Hepatitis C virus [1], the EC50 stood at 31 µM. The CC50 at 72 h in series [2] was > 50 µM. The selectivity ratio in series [3] is > 1.6.
In the case of `COC(=O)c1cccc2oc(-c3ccccc3S)nc12`, the Kd (in general, a measure of binding affinity in units of concentration) in series [4] was determined as 0.23 µM. In the series with Hepatitis C virus [1], the EC50 turned out to be 2.5 µM. Moreover, in series [2], the CC50 at 72 h stood at 4.1 µM. Further, the selectivity ratio in series [3] turned out to be 1.6.
On to `O=C(NCc1ccccc1)c1cccc2oc(-c3ccccc3O)nc12`, for which, in the series with Hepatitis C virus [1], the EC50 was found to be 10 µM. Moreover, in series [2], the cytotoxic concentration (CC50) at 72 h was > 50 µM. Moreover, in series [3], the selectivity ratio was > 5.
In the case of `O=C(O)c1cccc2[nH]c(-c3ccccc3O)nc12`, the EC50 worked out at 24 µM in the series on Hepatitis C virus [1] and 23 µM in the series with Hepatitis C virus [5]. For the same compound, the CC50 at 72 h in series [2] was > 197 µM; in series [6] it was > 100 µM. The selectivity ratio in series [3] is > 8.2; in series [7], > 4.3.
Regarding `COC(=O)c1cccc2c1nc(-c1ccccc1O)n2Cc1ccccc1`, the EC50 with Hepatitis C virus [1] turned out to be 7.5 µM; in the series with Hepatitis C virus [5] it was 0.9 µM. In addition, the CC50 at 72 h in series [2] is > 140 µM; in series [6], 95 µM. The selectivity ratio in series [3] was > 19; in series [7], 106.
For `COC(=O)c1cccc2oc(-c3c(O)ccc4ccccc34)nc12`, the EC50 in the series on Hepatitis C virus [1] was 28 µM. For the same compound, the CC50 at 72 h in series [2] is > 50 µM. For the same compound, the selectivity ratio in series [3] was > 1.8.
In the case of `CNC(=O)c1cccc2oc(-c3ccccc3O)nc12`, the Kd in series [4] came to 53 µM. In the series on Hepatitis C virus [1], the EC50 was 117 µM. Further, the CC50 at 72 h in series [2] was > 186 µM. Moreover, the selectivity ratio in series [3] was > 1.6.
The matching figures for `COC(=O)c1cccc2oc(-c3ccccc3O)nc12`: 65 µM, 40 µM, 71 µM and 1.8.
